Measured values taken from patent US20070149554A1, “Cancer chemotherapy” (Yung Shin Pharmaceutical Ind. Co., Ltd., priority 2005, published 2007).

Key:
WEHI-3 cells [1] = test: TUNEL/DAPI staining (apoptosis) in WEHI-3 cells; type: cell-based, murine; details: for TUNEL positive cells: 24 h, FIG. 3B; for nuclear shrinkage, chromatin condensation and DNA fragmentation (TUNEL/DAPI): 24 h culture, FIG. 3A
WEHI-3 cells [2] = test: NBT reduction (differentiation) in WEHI-3 cells; type: cell-based, murine; details: 24 h; for percentages of NBT positive cells: FIG. 3B
WEHI-3 leukemia cells = test: Survival, organ and body weight, spleen histopathology of BALB/c mice bearing WEHI-3 leukemia cells; type: in vivo; details: for mean survival time of WEHI-3/BALB/c mice: 30 mg/kg/mouse i.p., untreated 30 days, text of b65; for Survival days Range / Survival days Mean ± S.D.: 30 mg/kg/mouse, QD*7 (once two days by seven times), 10 mice; for Survival days Range: untreated 20-30; for Survival days Mean ± S.D.: untreated 26.0 ± 3.9; for infiltration of immature myeloblastic cells into splenic red pulp: H-E stain of spleen section, FIG. 2; for body weight loss in leukemia mice: within one month of experiment, data not shown
Procedure: Murine myelomonocytic leukemia cell line WEHI-3 was obtained from the Food Industry Research and Development Institute (Hsinchu, Taiwan). […] This cell line can induce leukemia in syngenic BALB/c mice for evaluating anti-leukemia effects of drugs.
Specifically, BLAB/c mice were divided into 4 groups. Group I was injected i.p. with WEHI-3 only. […] Control mice and all groups of mice were treated for 2 weeks before the animals were weighed and the blood was draw and sacrificed for further experiments.
The spleen and liver tissues were isolated from individual animals, photographed, weighed, and histopathologically examined.

caspase-3 = test: Caspase-3 activity assay in WEHI-3 cells; details: 12, 18 and 24 h treatment; 50 μM of compound 1; FIG. 4B
Procedure: (§1) The results were expressed as mean±S.D. and the difference between the groups was tested by one way ANOVA.

Hep3B cells = details: cited from earlier work
[3] = system: human hepatocellular carcinoma HA22T cells; details: cited from earlier work
platelet = details: cited from earlier work
WEHI-3 cells [4] = test: DNA fragmentation by agarose gel electrophoresis in WEHI-3 cells; details: compound 1 at 5 μM, 12 and 24 h; FIG. 4A
Procedure: as §1

WEHI-3 cells [5] = test: Cell cycle analysis of WEHI-3 cells in vitro; type: cell-based, murine; details: compound 1 5 μM, ATRA 1 μM, 24 h; data not shown
A498 renal cancer cells = test: A498 renal cancer xenograft tumor growth in athymic nude mice; type: in vivo; details: single agent; Compound 1 10 mg/kg/day oral in 0.5% CMC; paclitaxel or doxorubicin 20 mg/kg/week i.p.; nude mice with A498 tumors
Procedure: Athymic nude mice (BALB/c nu/nu female, 6-8 week old) were housed at 22° C. on a 12 h light/dark cycle. The mice were subcutaneously injected with A498 renal cancer cells (10^7 cell/mouse). After inoculation for 15 days, tumors were grown to a size of 100 to 150 mm^3. The mice were then randomly divided into six grounds (5 mice in each group). […] (paclitaxel and doxorubicin are commercial products). […] The tumors were carefully removed and weighed.

Compound	TUNEL positive cells (WEHI-3 cells [1]) [%]	nuclear shrinkage, chromatin condensation and DNA fragmentation (TUNEL/DAPI) (WEHI-3 cells [1])	NBT-reduction compared with control cells (WEHI-3 cells [2])	percentages of NBT positive cells (WEHI-3 cells [2]) [%]	mean survival time of WEHI-3/BALB/c mice (WEHI-3 leukemia cells) [days]	Survival days Range (WEHI-3 leukemia cells) [days]	Survival days Mean ± S.D. (WEHI-3 leukemia cells) [days]	infiltration of immature myeloblastic cells into splenic red pulp (WEHI-3 leukemia cells)	body weight loss in leukemia mice (WEHI-3 leukemia cells)	caspase-3 activity (caspase-3)	hypoxia induction of erythropoietin and vascular endothelial growth factor (Hep3B cells)	cell cycle arrest [3]	antiplatelet activity (platelet)	DNA fragmentation (agarose gel) (WEHI-3 cells [4])	sub-G1 population (WEHI-3 cells [5])	tumor size compared with control group (A498 renal cancer cells)
CC1=C(/C=C/C(C)=C/C=C/C(C)=C/C(=O)O)C(C)(C)CCC1 [ATRA, all trans retinoic acid, reference compound]	5.45	not observed	significant increases	33.42	42	26 to 42	33.9 ± 5.0	reduced	improved the body weight loss							
OCc1ccc(-c2nn(Cc3ccccc3)c3ccccc23)o1 [Compound 1, 1-benzyl-3-(5′-hydroxymethyl-2′-furyl)indazole]	40.33	exhibited nuclear shrinkage, chromatin condensation and DNA fragmentation		3.56	40	22 to 40	32.3 ± 4.9	reduced	improved the body weight loss	rapid induction of caspase-3 activity	inhibits hypoxia induction of erythropoietin and vascular endothelial growth factor	arresting cell cycles at the Go/G1 stage	novel antiplatelet agent	fragmented into a ladder of 180-200 base pairs	increased sub-GI population	smaller tumors than those in the control group
CC(=O)O[C@H]1C(=O)[C@@]2(C)[C@H]([C@H](OC(=O)c3ccccc3)[C@]3(O)C[C@H](OC(=O)[C@H](O)[C@@H](NC(=O)c4ccccc4)c4ccccc4)C(C)=C1C3(C)C)[C@]1(OC(C)=O)CO[C@@H]1C[C@@H]2O [paclitaxel, Paclitaxel]																smaller tumors than those in the control group
COc1cccc2c1C(=O)c1c(O)c3c(c(O)c1C2=O)C[C@@](O)(C(=O)CO)C[C@@H]3O[C@H]1C[C@H](N)[C@H](O)[C@H](C)O1 [doxorubicin, Doxorubicin]																smaller tumors than those in the control group
